Assay results taken from US6630477B1, “Therapeutic nucleoside compound” (SmithKline Beecham Corporation, priority 1999, dated 2003).
pIC50: −log10 of the molar value.

Key:
Hepatitis B virus = assay: Hepatitis B Virus Activity (method of Jansen et al. 1993); assay type: cell-based; details: n=2, read-out: IC50 against Hepatitis B virus
Experimental: (§1) The activity of compounds against Hepatitis B Virus was assessed as described in Jansen, R. et al., Antimicrobial Agents and Chemotherapy, Vol. 37, No. 3, pp. 441-447, 1993.

[1] = Cytotoxicity (reported with the Hepatitis B virus activity test); assay type: cell-based
Experimental: as §1

**Q.** Which results are given for `Nc1ncnc2c1ncn2[C@@H]1C=C[C@H](CO)C1` [(+)-(1R,4S)-4-(6-Amino-9H-purin-9-yl)-2-cyclopentene-1-methanol]?
**A.** pIC50 (Hepatitis B virus): 6.00; Cytotoxicity [1]: > 200 µM; melting point: 195 to 200 °C
